From patent US11980609B2, “LPA receptor antagonists and uses thereof” (Gilead Sciences, Inc., priority 2021, dated 2024)

Target: T1, human LPAR1 (Homo sapiens, UniProt Q92633)
T1 construct: host or cells: CHO-K1
Test: LPAR1 intracellular calcium mobilization assay (antagonist mode)
Format: cell-based
Conditions: CHO-K1 EDG2 cells expressing human LPAR1; 60 min pre-incubation with compound (0.5 nM to 10 μM), then LPA 18:2 challenge; FLIPR Tetra calcium signal
Method: In vitro LPAR1 activity was measured in an intracellular calcium mobilization assay.
CHO-K1 EDG2 cells (DiscoverX cat #93-0644C2) expressing human LPAR1 (NM_001401.3) were seeded in a total volume of 25 μL of Dulbecco's Modification of Eagle's Medium (DMEM) with 10% Fetal Bovine Serum, 1× PenStrepGlutamine, 300 μg/ml Hygromycin, and 800 μg/ml G418 into 384-well tissue culture plate (Grenier #781091) at 15,000 cells/well and incubated at 37° C. overnight. Prior to testing, 25 μL Calcium Loading Dye Component A (FLIPR Calcium 6 Assay Kit Molecular Device #R8190) and 2.5 mM Probenecid (Invitrogen #P36400, prepared fresh) in Hank's Balanced Salt Solution (Corning #21-023-CV), 20 mM HEPES (Corning #25-060-CI), 0.1% Bovine Serum Albumin (Sigma-Aldrich #A7906-500G) was add to the cells for 60 minutes at 37° C.
Agonist dose curves of LPA 18:2 (Avanti Polar Lipids cat #857138, 0.5 nM to 10 μM) were recorded to determine the LPA 18:2 EC80 for subsequent antagonist assays. For agonist dose curves, cells were removed from the incubator 2 hours after dye loading and transferred to the FLIPR Tetra instrument (Molecular Devices, San Jose, CA). Calcium mobilization was monitored for 5 min and 10 μL 6×LPA in HBSS/20 mM Hepes/0.1% bovine serum albumin (BSA) was added to the cells 5 seconds into the assay.
To determine the LPAR1 antagonist activity of test compounds, cells were pre-incubated with test compound at a dose range of 0.5 nM to 10 μM, followed by LPA at […] concentration (100 nM). After dye loading, cells were removed from the incubator and 0.3 μL of 200× antagonist was added. Cells were incubated for 60 minutes at 37° C. Antagonist activity was measured on a FLIPR Tetra. Calcium mobilization was monitored for 3.5 minutes and 10 μL 6×EC80 LPA in HBSS, 20 mM HEPES, and 0.1% BSA was added to the cells 5 seconds into the assay. Signal amplitude (Maximum minus minimum) values were plotted against log10 of antagonist concentration using Dose Response Tool (Gilead Sciences Inc.) to determine EC50.
To assess the antagonistic potential of exemplified compounds EC50 values were determined for Compounds 1 to 55 in the LPAR1 calcium mobilization assay. The compound numbers correspond to the compound numbers in Examples 1 to 35. N/A=not available.

T1 sequence (Q92633 whole entry): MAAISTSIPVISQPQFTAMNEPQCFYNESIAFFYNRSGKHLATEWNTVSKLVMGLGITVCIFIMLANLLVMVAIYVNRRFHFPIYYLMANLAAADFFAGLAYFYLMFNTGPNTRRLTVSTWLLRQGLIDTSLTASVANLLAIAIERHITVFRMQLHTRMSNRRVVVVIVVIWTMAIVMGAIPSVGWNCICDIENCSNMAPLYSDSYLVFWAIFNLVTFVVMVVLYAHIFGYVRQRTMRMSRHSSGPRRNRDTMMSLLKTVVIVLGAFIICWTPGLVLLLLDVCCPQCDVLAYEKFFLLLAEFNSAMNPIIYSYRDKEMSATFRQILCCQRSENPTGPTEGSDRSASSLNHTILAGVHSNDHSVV

EC50 [nM] | Structure (SMILES)
14 | C[C@@H](OC(=O)Nc1c(-c2ncc(NC(=O)C3(C)CC(F)(F)C3)cn2)cnn1C)c1cc(F)cnc1F [Compound 35, (R)-1-(2,5-difluoropyridin-3-yl)ethyl (4-(5-(3,3-difluoro-1-methylcyclobutane-1-carboxamido)pyrimidin-2-yl)-1-methyl-1H-pyrazol-5-yl)carbamate]
14.1 | C[C@@H](OC(=O)Nc1c(-c2ncc(OS(C)(=O)=O)cn2)cnn1C)c1cc(F)cnc1Cl [Compound 6, (R)-2-(5-(((1-(2-chloro-5-fluoropyridin-3-yl)ethoxy)carbonyl)amino)-1-methyl-1H-pyrazol-4-yl)pyrimidin-5-yl methanesulfonate]
51.5 | CCS(=O)(=O)Oc1cnc(-c2cnn(C)c2NC(=O)O[C@H](C)c2cc(F)cnc2Cl)nc1 [Compound 5, (R)-2-(5-(((1-(2-chloro-5-fluoropyridin-3-yl)ethoxy)carbonyl)amino)-1-methyl-1H-pyrazol-4-yl)pyrimidin-5-yl ethanesulfonate]
36.2 | C[C@@H](OC(=O)Nc1c(-c2ncc(NC(=O)C34CC(F)(C3)C4)cn2)cnn1C)c1cc(F)cnc1F [Compound 30, (R)-1-(2,5-difluoropyridin-3-yl)ethyl (4-(5-(3-fluorobicyclo[1.1.1]pentane-1-carboxamido)pyrimidin-2-yl)-1-methyl-1H-pyrazol-5-yl)carbamate]
36.1 | C[C@@H](OC(=O)Nc1c(-c2ncc(NC(=O)c3cnc(C(F)F)nc3)cc2F)cnn1C)c1cc(F)cnc1F [Compound 18, (R)-1-(2,5-difluoropyridin-3-yl)ethyl (4-(5-(2-(difluoromethyl)pyrimidine-5-carboxamido)-3-fluoropyridin-2-yl)-1-methyl-1H-pyrazol-5-yl)carbamate]
1410 | C[C@@H](OC(=O)Nc1c(-c2ncc(OS(=O)(=O)C3CC3)cn2)cnn1C)c1cccnc1F [Compound 7, (R)-2-(5-(((1-(2-fluoropyridin-3-yl)ethoxy)carbonyl)amino)-1-methyl-1H-pyrazol-4-yl)pyrimidin-5-yl cyclopropanesulfonate]
< 4.6 | C[C@@H](OC(=O)Nc1c(-c2ncc(NC(=O)[C@@H]3C[C@H]3C(F)(F)F)cn2)cnn1C)c1cccnc1F [Compound 40, (R)-1-(2-fluoropyridin-3-yl)ethyl (1-methyl-4-(5-((1R,2R)-2-(trifluoromethyl)cyclopropane-1-carboxamido)pyrimidin-2-yl)-1H-pyrazol-5-yl)carbamate]
763 | C[C@@H](OC(=O)Nc1c(-c2ccc(NC(=O)C3(C#N)CC3)cn2)cnn1C)c1cc(F)cnc1F [Compound 19, (R)-1-(2,5-difluoropyridin-3-yl)ethyl (4-(5-(1-cyanocyclopropane-1-carboxamido)pyridin-2-yl)-1-methyl-1H-pyrazol-5-yl)carbamate]
16.8 | C[C@@H](OC(=O)Nc1c(-c2ncc(NC(=O)C3(C#N)CC3)cn2)cnn1C)c1cc(F)cnc1Cl [Compound 23, (R)-1-(2-chloro-5-fluoropyridin-3-yl)ethyl (4-(5-(1-cyanocyclopropane-1-carboxamido)pyrimidin-2-yl)-1-methyl-1H-pyrazol-5-yl)carbamate]
81.5 | C[C@@H](OC(=O)Nc1c(-c2ncc(NC(=O)C3(C#N)CC3)cn2)cnn1C)c1cc(F)cnc1F [Compound 21, (R)-1-(2,5-difluoropyridin-3-yl)ethyl (4-(5-(1-cyanocyclopropane-1-carboxamido)pyrimidin-2-yl)-1-methyl-1H-pyrazol-5-yl)carbamate]
66.7 | C[C@@H](OC(=O)Nc1c(-c2ncc(NC(=O)[C@@H]3C[C@H]3C#N)cn2)cnn1C)c1cc(F)cnc1F [Compound 39, (R)-1-(2,5-difluoropyridin-3-yl)ethyl (4-(5-((1R,2R)-2-cyanocyclopropane-1-carboxamido)pyrimidin-2-yl)-1-methyl-1H-pyrazol-5-yl)carbamate]
56.8 | C[C@@H](OC(=O)Nc1c(-c2ncc(O)cc2F)cnn1C)c1cccnc1Cl [Compound 10, (R)-1-(2-chloropyridin-3-yl)ethyl (4-(3-fluoro-5-hydroxypyridin-2-yl)-1-methyl-1H-pyrazol-5-yl)carbamate]
54.9 | C[C@@H](OC(=O)Nc1c(-c2ncc(NC(=O)C3(C#N)CC3)cn2)cnn1C)c1cccnc1F [Compound 42, (R)-1-(2-fluoropyridin-3-yl)ethyl (4-(5-(1-cyanocyclopropane-1-carboxamido)pyrimidin-2-yl)-1-methyl-1H-pyrazol-5-yl)carbamate]
22.6 | COC1(C#N)CC(C(=O)Nc2cnc(-c3cnn(C)c3NC(=O)O[C@H](C)c3cc(F)cnc3F)nc2)C1 (stereo partly drawn) [Compound 43, (R)-1-(2,5-difluoropyridin-3-yl)ethyl (4-(5-(3-cyano-3-methoxycyclobutane-1-carboxamido)pyrimidin-2-yl)-1-methyl-1H-pyrazol-5-yl)carbamate]
158 | C[C@@H](OC(=O)Nc1c(-c2ncc(C(=O)NC34CC(C#N)(C3)C4)cn2)cnn1C)c1cc(F)cnc1F [Compound 46, (R)-1-(2,5-difluoropyridin-3-yl)ethyl (4-(5-((3-cyanobicyclo[1.1.1]pentan-1-yl)carbamoyl)pyrimidin-2-yl)-1-methyl-1H-pyrazol-5-yl)carbamate]
1780 | C[C@@H](OC(=O)Nc1c(-c2ncc(OC(F)F)cn2)cnn1C)c1cc(F)cnc1F [Compound 55, (R)-1-(2,5-difluoropyridin-3-yl)ethyl (4-(5-(difluoromethoxy)pyrimidin-2-yl)-1-methyl-1H-pyrazol-5-yl)carbamate]
2880 | C[C@@H](OC(=O)Nc1c(-c2ncc(C(F)F)cn2)cnn1C)c1cc(F)cnc1F [Compound 54, (R)-1-(2,5-difluoropyridin-3-yl)ethyl (4-(5-(difluoromethyl)pyrimidin-2-yl)-1-methyl-1H-pyrazol-5-yl)carbamate]
869 | C[C@@H](OC(=O)Nc1c(-c2ccc(C(=O)NC34CC(F)(C3)C4)cn2)cnn1C)c1cccnc1Cl [Compound 50]
1250 | Cc1nc(-c2cnn(C)c2NC(=O)O[C@H](C)c2cccc(F)c2)ccc1NS(C)(=O)=O [Compound 13, (R)-1-(3-fluorophenyl)ethyl (1-methyl-4-(6-methyl-5-(methylsulfonamido)pyridin-2-yl)-1H-pyrazol-5-yl)carbamate]
19.7 | C[C@@H](OC(=O)Nc1c(-c2ncc(NC(=O)C3(C#N)CC3)cc2F)cnn1C)c1cc(F)cnc1F [Compound 17, (R)-1-(2,5-difluoropyridin-3-yl)ethyl (4-(5-(1-cyanocyclopropane-1-carboxamido)-3-fluoropyridin-2-yl)-1-methyl-1H-pyrazol-5-yl)carbamate]
28 | C[C@@H](OC(=O)Nc1c(-c2ncc(NC(=O)c3ccc(C(F)(F)F)nc3)cn2)cnn1C)c1cc(F)cnc1F [Compound 27, (R)-1-(2,5-difluoropyridin-3-yl)ethyl (1-methyl-4-(5-(6-(trifluoromethyl)nicotinamido)pyrimidin-2-yl)-1H-pyrazol-5-yl)carbamate]
11.7 | C[C@@H](OC(=O)Nc1c(-c2ccc(NS(C)(=O)=O)cc2)cnn1C)c1ccccc1Cl [Compound 1, (R)-1-(2-chlorophenyl)ethyl (1-methyl-4-(4-(methylsulfonamido)phenyl)-1H-pyrazol-5-yl)carbamate]
26.8 | C[C@@H](OC(=O)Nc1c(-c2ncc(NC(=O)c3cnc(C(F)F)nc3)cn2)cnn1C)c1cc(F)cnc1F [Compound 24, (R)-1-(2,5-difluoropyridin-3-yl)ethyl (4-(5-(2-(difluoromethyl)pyrimidine-5-carboxamido)pyrimidin-2-yl)-1-methyl-1H-pyrazol-5-yl)carbamate]
39.6 | Cc1nc(-c2cnn(C)c2NC(=O)O[C@H](C)c2cccnc2Cl)ncc1OS(C)(=O)=O [Compound 3, (R)-2-(5-(((1-(2-chloropyridin-3-yl)ethoxy)carbonyl)amino)-1-methyl-1H-pyrazol-4-yl)-4-methylpyrimidin-5-yl methanesulfonate]
167 | Cc1nc(-c2cnn(C)c2NC(=O)O[C@H](C)c2cccnc2Cl)ncc1O [Compound 4, (R)-1-(2-chloropyridin-3-yl)ethyl (4-(5-hydroxy-4-methylpyrimidin-2-yl)-1-methyl-1H-pyrazol-5-yl)carbamate]
74 | C[C@@H](OC(=O)Nc1c(-c2ncc(OS(C)(=O)=O)cc2F)cnn1C)c1cc(F)cnc1F [Compound 11, (R)-6-(5-(((1-(2,5-difluoropyridin-3-yl)ethoxy)carbonyl)amino)-1-methyl-1H-pyrazol-4-yl)-5-fluoropyridin-3-yl methanesulfonate]
